According to EPA's CvTdb concentration-time database:

Experiments:
Rat [1] = assay: concentration in plasma after dosing
Rat [2] = assay: concentration in brain after dosing

CC(C)[C@]12CC(=O)[C@H](C)[C@H]1C2 [alpha-Thujone]
dosed: alpha-Thujone, oral
Conditions	concentration in brain, Rat [2] [ng/g]	concentration in plasma, Rat [1] [ng/mL]
0.5 h, 25 mg/kg, Female, Harlan Sprague Dawley	801	189
0.5 h, 25 mg/kg, Male, Harlan Sprague Dawley	689	407
0.5 h, 50 mg/kg, Female, Harlan Sprague Dawley	1350	474
0.5 h, 50 mg/kg, Male, Harlan Sprague Dawley	2470	710
1.5 h, 25 mg/kg, Male, Harlan Sprague Dawley	299	156
1.5 h, 50 mg/kg, Female, Harlan Sprague Dawley	966	491
1.5 h, 50 mg/kg, Male, F344	952	294
1.5 h, 50 mg/kg, Male, Harlan Sprague Dawley	677	116
2 min, 25 mg/kg, Female, Harlan Sprague Dawley	77.8	29.7
2 min, 25 mg/kg, Male, Harlan Sprague Dawley	21	45.2
2 min, 50 mg/kg, Female, Harlan Sprague Dawley	44.8	109
2 min, 50 mg/kg, Male, Harlan Sprague Dawley	40.6	11.9
3 h, 25 mg/kg, Female, Harlan Sprague Dawley	390	104
3 h, 25 mg/kg, Male, Harlan Sprague Dawley	122	134
3 h, 50 mg/kg, Female, Harlan Sprague Dawley	517	214
3 h, 50 mg/kg, Male, Harlan Sprague Dawley	1130	255
5 min, 25 mg/kg, Male, Harlan Sprague Dawley	414	146
5 min, 50 mg/kg, Female, F344	2010	1480
5 min, 50 mg/kg, Female, Harlan Sprague Dawley	508	427
6 h, 25 mg/kg, Female, Harlan Sprague Dawley	270	84.7
6 h, 25 mg/kg, Male, Harlan Sprague Dawley	77.1	119
6 h, 50 mg/kg, Female, F344	437	146
6 h, 50 mg/kg, Female, Harlan Sprague Dawley	648	209
6 h, 50 mg/kg, Male, Harlan Sprague Dawley	518	174
10 min, 25 mg/kg, Male, Harlan Sprague Dawley	689	323
10 min, 50 mg/kg, Female, F344	4550	1200
10 min, 50 mg/kg, Female, Harlan Sprague Dawley	1030	547
10 min, 50 mg/kg, Male, F344	6400	2200
10 min, 50 mg/kg, Male, Harlan Sprague Dawley	6510	2050
12 h, 25 mg/kg, Female, Harlan Sprague Dawley	12.7	3.31
12 h, 25 mg/kg, Male, Harlan Sprague Dawley	–	16.4
12 h, 50 mg/kg, Female, Harlan Sprague Dawley	48.5	24.3
12 h, 50 mg/kg, Male, Harlan Sprague Dawley	31.7	11.6

dosed: 76231-76-0, 3.0 mg/kg, iv, F344
Conditions	concentration in brain, Rat [2] [ng/g]	concentration in plasma, Rat [1] [ng/mL]
2 h, Female	16.8	4.41
2.5 h, Female	11.6	2.79
3 h, Female	11.6	–
4 h, Male	26.3	–
12 h, Male	–	3.95
